Experimental data as given in patent US11395833B2, “Process for the preparation and purification of the sodium salt of hyaluronic acid” (priority 2016, dated 2022).

Experiment: LAL test for bacterial endotoxins (Ph. Eur. 5.0, 2.6.14)
Conditions: analysis of the product according to Ph. Eur. 5.0
Protocol: LAL Test: the basis of the LAL test is the capacity of the amebocytes extracted from blood of Limulus polyphemus to gel in the presence of bacterial endotoxins from Gram-negatives, primarily responsible for the pyrogen effect. This test is carried out according to Ph. Eur. 5.0, 2.6.14.

| Substance | Bacterial endotoxins (LAL test) [EU/mg] |
| --- | --- |
| sodium salt of HA [Example 1] | 0.012 |
| sodium salt of HA [Example 2] | 0.012 |
| sodium salt of HA [Example 3] | 0.0075 |
